Source: article PMC4741576 (Oncotarget, 2015)

Tests used:
[1] = overall health of xenografted mice; conditions: 3 consecutive days for 2 weeks; POL5551 5 mg/kg s.c., cytarabine 200 mg/kg i.p.
Text: (§1) CXCR4 antagonism has been advanced clinically in acute leukemia. Trials of plerixafor as a chemosensitizing agent have been completed in adults with relapsed/refractory and newly-diagnosed AML, [33] and children with relapsed/refractory acute leukemias. One concern about CXCR4 antagonism is that mobilized hematopoietic stem cells will become more susceptible to chemotherapy and lead to delayed blood count recovery.
(§2) Leukemic blasts (1 × 10^6 per mouse) were then secondarily transplanted into sublethally irradiated NSG mice for treatment experiments. […] After sacrifice, cells were isolated from bone marrow, spleen, and peripheral blood; counted; and stained with anti-human FACS antibodies (CD19- FITC, CD45-PE/APC, 12G5 CXCR4-APC, 1D9 CXCR4-PE, CXCR7-PerCP, and/or CD49d-PE-Cy5).

[2] = system: CD49d; assay: CD49d surface expression in leukemic blasts from xenografted mice; assay type: in vivo, human; conditions: bone marrow, spleen and peripheral blood blasts, compared to control; differences not statistically significant
Text: as §2

[3] = system: CXCR4; conditions: vs. control
Text: as §2

[4] = system: infant MLL-R ALL primary samples; assay: xenograft of infant MLL-R ALL, leukemic burden; assay type: in vivo, human blasts in NSG mice
Text: Therefore, we transplanted primary samples from infants with MLL-R ALL. […] To make our xenograft model even more aggressive, we transplanted cells that had already been passaged once through NOD/SCID/γc^null (NSG) mice in order to select for leukemia-initiating cells from the cryopreserved primary samples. We performed this experiment using 4 different infant MLL-R ALL primary samples (Figure 6A).
Mice were sacrificed at the start of week 4, or 4 days after the last treatment. […] Overall leukemic burden was quantified by averaging the percentage of blasts (human CD45+ and CD19+) detected in the bone marrow, spleen, and peripheral blood. Quantification of leukemic blasts was performed in duplicate.
Cryopreserved primary ALL cells were thawed, counted (TC10 Automated Cell Counter, BioRad, Hercules, CA), and resuspended in cold PBS. Adult NSG mice (Jackson Laboratories, Bar Harbor, ME) were sublethally irradiated (200 centiGray) 4 hours prior to the transplantation of 1 × 10^6 viable cells via tail vein injection. Mice were started on Uniprim medicated feed (Harlan Laboratories, Frederick, MD) ≥ 24 hours prior to transplantation in order to decrease opportunistic infections. Peripheral blood was collected via cheek venipuncture 4 to 6 weeks post-transplant and analyzed by FACS after staining with anti-human CD19-FITC and anti-human CD45-PE (BD Pharmingen). Leukemic blasts were defined as cells that co-expressed human CD45 and human CD19. Mice were sacrificed 2 to 4 weeks post-engraftment and leukemic cells were harvested from the spleen and bone marrow.
as §2

[5] = system: ERK1/2; assay: SDF-1α-induced phosphorylation of ERK1/2 (PhosphoFACS); assay type: cell-based, human; conditions: control-treated cells, SDF-1α 75 ng/mL for 15 minutes
Text: (§3) CXCR7 is a second receptor for SDF-1α, [24, 25] while VLA-4 is an integrin, [26] and both are important in the interaction of leukemia cells with the bone marrow stromal microenvironment.

[6] = target: T1, surface CXCR4 (Homo sapiens, UniProt P61073); assay: 12G5 anti-CXCR4 antibody binding (FACS), ALL cell lines
T1 construct: endogenous in cells; host or cells: pediatric ALL cell lines (pre-B: Nalm-6, HB-1119 and others; T cell: Jurkat, CCRF-CEM-1301 and others)
T1 sequence (P61073 whole entry): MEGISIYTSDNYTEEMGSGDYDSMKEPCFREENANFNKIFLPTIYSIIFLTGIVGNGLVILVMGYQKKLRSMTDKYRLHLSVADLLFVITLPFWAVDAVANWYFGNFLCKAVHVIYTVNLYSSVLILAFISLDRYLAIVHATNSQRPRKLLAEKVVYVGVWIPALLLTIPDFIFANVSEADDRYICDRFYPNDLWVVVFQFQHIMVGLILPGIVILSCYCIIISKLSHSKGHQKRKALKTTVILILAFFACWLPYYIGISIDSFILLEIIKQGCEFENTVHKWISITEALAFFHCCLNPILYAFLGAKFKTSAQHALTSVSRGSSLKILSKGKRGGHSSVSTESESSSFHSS
Protocol: We then harvested cells and measured binding of the 12G5 anti-CXCR4 antibody, which attaches to the SDF-1α binding site of CXCR4, by FACS as a marker for surface CXCR4 expression.
12G5 anti-CXCR4 antibody binding was measured by FACS and MFI were normalized to control at each time point.
Conversely, 1D9 antibody binding is a measure of total surface CXCR4. […] At multiple time points, we measured binding to surface CXCR4 by flow cytometry using 3 anti-CXCR4 antibodies: 12G5, 1D9, and 2B11.
Cells were harvested at multiple time points, washed with ice-cold wash buffer (PBS with 0.5% bovine serum albumin, Sigma-Aldrich), stained with antibodies at manufacturer-recommended concentrations (12G5 anti-human CD184 [CXCR4]-APC, eBioscience, San Diego, CA; 12G5 anti-human CD184-PE-Cy5, BD Pharmingen, San Diego, CA; 1D9 anti-human CD184-PE, BD Pharmingen; 2B11 anti-mouse CD184-APC, eBioscience; anti-human CXCR7- PerCP, R&D Systems, Minneapolis, MN), washed, fixed with 1% paraformaldehyde (VWR, Radnor, PA), and stored at 4°C in the dark until analysis on a FACSCalibur (BD Biosciences, San Jose, CA). A live gate was drawn using FlowJo (TreeStar, Ashland, OR) according to forward/side scatter properties and used to calculate the MFI. MFI were normalized to the isotype control (IC) MFI at each time point and then normalized to the MFI:IC ratio of control-treated (0 nM) samples.

[7] = system: pediatric ALL and acute myeloid leukemia (AML); conditions: cited from earlier work
Text: ALL is the most common pediatric malignancy. […] However, children and young adults with high-risk and relapsed/refractory ALL continue to have suboptimal outcomes. […] Specifically, interaction between the cell surface receptor CXCR4 ...

[8] = system: surface CXCR4; conditions: leukemic blasts; cited from earlier work
[9] = system: surface CXCR4; conditions: leukemic blasts; cited from earlier work; remark: listed apart in the source
[10] = system: acute leukemias; conditions: several preclinical studies; cited from earlier work
Text: Efforts to improve outcomes in pediatric ALL have largely been focused on factors intrinsic to the leukemic blast, such as genetic mutations or alterations in gene expression. However, it is likely that survival signals from the bone marrow microenvironment also contribute to treatment failure and relapse. As such, many groups have studied CXCR4 antagonism as a means to improve outcomes in acute leukemias. […] Our paper is ...

[11] = system: CXCR7; conditions: ALL; cited from earlier work
Text: as §3

[12] = system: acute leukemias; conditions: cited from earlier work
Text: as §1, with “recovery. […] With regards to ...” for “recovery.”

## Nc1ccn([C@@H]2O[C@H](CO)[C@@H](O)[C@@H]2O)c(=O)n1 [cytarabine]
[1]
  appearance of mice at sacrifice: thin and hunched at sacrifice
[2]
  CD49d mean fluorescence index (MFI): increased
[3]
  12G5 antibody binding in blasts from bone marrow and peripheral blood: moderate but non-significant decrease in 12G5 antibody binding
[4]; 3 consecutive days for 2 weeks, vs. vehicle control
  overall leukemic burden compared to vehicle control: significantly decreased total leukemic burden compared to vehicle control
[4]; average of bone marrow, spleen, peripheral blood, 4 primary samples pooled, n = 5 mice/cohort, POL5551 5 mg/kg s.c., cytarabine 200 mg/kg i.p., 3 consecutive days for 2 weeks, vehicle control 56.2%
  overall leukemic burden: 36.7%
[4]; bone marrow, cytarabine 200 mg/kg i.p., vs. vehicle control
  leukemic burden in bone marrow compared to vehicle control: did not lead to a significant decrease in leukemic burden compared to vehicle control
[4]; bone marrow, POL5551 5 mg/kg s.c., cytarabine 200 mg/kg i.p., 3 consecutive days for 2 weeks
  leukemic burden, bone marrow: 49.5%
[4]; peripheral blood, POL5551 5 mg/kg s.c., cytarabine 200 mg/kg i.p., 3 consecutive days for 2 weeks
  leukemic burden, blood: 29.6%
[4]; spleen, POL5551 5 mg/kg s.c., cytarabine 200 mg/kg i.p., 3 consecutive days for 2 weeks
  leukemic burden, spleen: 30.8%

## SDF-1α
[5]
  ERK1/2 phosphorylation, effect of SDF-1α: increase in phosphorylation of ERK1/2

## c1cc(CN2CCCNCCNCCCNCC2)ccc1CN1CCCNCCNCCCNCC1 [plerixafor]
[6]; ALL cell lines, 48-hour time course
  12G5 antibody binding, potency relative to POL5551 / plerixafor: several-fold higher concentrations of plerixafor were needed to achieve similar levels of reduction of 12G5 antibody binding
[6]; NALM-6, read-out: maximum inhibition of 12G5 antibody binding
  inhibition at 0.04 µM: ~20%
[7]
  stromal protection and chemotherapy resistance: could reverse stromal protection and chemotherapy resistance
[8]
  12G5 antibody binding to surface CXCR4: decrease in 12G5 antibody binding
[9]
  1D9 antibody binding to surface CXCR4: increase in 1D9 antibody binding
[10]
  in vivo sensitivity to anti-leukemic therapies: enhances in vivo sensitivity to anti-leukemic therapies
[11]
  surface expression of CXCR7: increase in surface expression of CXCR7
[12]; phase 1/2 trials of plerixafor
  prolonged count recovery: none of them reported prolonged count recovery
[12]; phase 1/2 trials, adults with AML, children with relapsed/refractory acute leukemias
  tolerability and efficacy as a chemosensitizing agent: showed tolerability and efficacy of plerixafor as a chemosensitizing agent
[12]; plerixafor trials
  development of extramedullary disease after treatment: none of the aforementioned trials reported the development of extramedullary disease after treatment
